The values below come from patent publication US7482488B2, “Aryl and heteroaryl propene amides, derivatives thereof and therapeutic uses thereof” (Temple University - Of The Commonwealth System of Higher …, priority 2002, dated 2009).

Common to all, as to type: cell-based, human
In assay [1] the test system is K562 (chronic myelogenous leukemia). Put plainly: Effect on tumor cell lines: viable cell count by trypan blue exclusion, K562. The settings on record: K562 chronic myelogenous leukemia cells; 100 nM to 10 μM; viable cells counted 96 hours after treatment. The procedure: (§1) The effect of the aromatic acrylamides on normal fibroblasts and on tumor cells was determined by the assay described by Latham et al.,Oncogene 12:827-837 (1996). Normal diploid lung human fibroblasts (HFL-1) or tumor cells (BT20(breast cancer), DLD1 (colorectal cancer), DU145 (prostate cancer and K562 (chronic myelogenous leukemia )) were plated in 6-well dishes at a cell density of 1.0 ×10^5cells per 35-mm^2 well. The plated cells were treated 24 hours later with a compound of the invention, dissolved in DMSO at multiple concentrations ranging from 100 nM to 10 μM. The total number of viable cells was determined 96 hours later by trypsinizing the wells and counting the number of viable cells, as determined by trypan blue exclusion, using a hemacytometer. Normal HFL cells were treated with the same compounds under the same conditions of concentration and time.
(§2) Representative examples of activities of compounds of the invention in cell lines: BT20(breast cancer), DLD1 (colorectal cancer), DU145 (prostate cancer and K562 (chronic myelogenous leukemia ) are listed in Table 5.

The subject of the next assay is DU145 (prostate cancer). As to the kind of experiment: Effect on tumor cell lines: viable cell count by trypan blue exclusion, DU145. The settings on record: DU145 prostate cancer cells; 100 nM to 10 μM; viable cells counted 96 hours after treatment. The procedure:
as §1, §2

Another assay relates to BT20 (breast cancer). Put plainly: Effect on tumor cell lines: viable cell count by trypan blue exclusion, BT20. The conditions noted are these: BT20 breast cancer cells; 100 nM to 10 μM; viable cells counted 96 hours after treatment. The procedure: as §1, §2
A further assay relates to DLD1 (colorectal cancer). Put plainly: Effect on tumor cell lines: viable cell count by trypan blue exclusion, DLD1. The conditions noted are these: DLD1 colorectal cancer cells; 100 nM to 10 μM; viable cells counted 96 hours after treatment. The procedure: as §1, §2

In the case of `COc1ccc(NC(=O)/C=C/c2c(OC)cc(OC)cc2OC)cc1` [Example 1, (E)-N-(4-Methoxyphenyl)-3-(2,4,6-trimethoxyphenyl)-2-propen-amide], the K562 activity result in assay [1] was “+++ (+++ denotes activity at 100 nM)”. For the same molecule, the DU145 activity result in the assay on DU145 (prostate cancer) was “+++ (+++ denotes activity at 100 nM)”. Besides, in the assay on BT20 (breast cancer), the BT20 activity result is “+++ (+++ denotes activity at 100 nM)”. Further, the DLD1 activity entry in the assay with DLD1 (colorectal cancer) is “+++ (+++ denotes activity at 100 nM)”.

Take `COc1ccc(NC(=O)/C=C/c2c(OC)cccc2OC)cc1` [Example 2, (E)-N-(4-Methophenyl)-3-(2,6-dimethoxypheyl)-2-propenamide]: the K562 activity entry in assay [1] was “+ (+ denotes activity at >10 μM)”. Moreover, the DU145 activity entry in the assay with DU145 (prostate cancer) was “+ (+ denotes activity at >10 μM)”. Besides, the BT20 activity result in the assay with BT20 (breast cancer) is recorded as “+ (+ denotes activity at >10 μM)”. Further, in the assay on DLD1 (colorectal cancer), the DLD1 activity entry is “+ (+ denotes activity at >10 μM)”.

For `COc1ccc(NC(=O)/C=C/c2cc(OC)c(OC)c(OC)c2)cc1N` [Example 4, (E)-N-(4-Methoxy-3-aminophenyl)-3-(3,4,5-trimethoxyphenyl)-2-propenamide], the K562 activity result in assay [1] is “+ (+ denotes activity at >10 μM)”. In addition, in the assay with DU145 (prostate cancer), the DU145 activity result is recorded as “+ (+ denotes activity at >10 μM)”. Besides, the BT20 activity result in the assay with BT20 (breast cancer) is “+ (+ denotes activity at >10 μM)”. Further, the DLD1 activity entry in the assay on DLD1 (colorectal cancer) is “+ (+ denotes activity at >10 μM)”.

As to `COc1cc(OC)c(/C=C/C(=O)Nc2ccc(OC)c(N)c2)c(OC)c1` [Example 6, (E)-N-(4-methoxy-3-aminophenyl)-3-(2,4,6-trimethoxyphenyl)-2-propenamide], in assay [1], the K562 activity result is “+++ (+++ denotes activity at 100 nM)”. Also, the DU145 activity result with DU145 (prostate cancer) is on record as “+++ (+++ denotes activity at 100 nM)”. Besides, the BT20 activity result in the assay with BT20 (breast cancer) is “+++ (+++ denotes activity at 100 nM)”. In the assay on DLD1 (colorectal cancer), the DLD1 activity result is given as “+++ (+++ denotes activity at 100 nM)”.

With `COc1ccc(NC(=O)/C=C/c2c(F)c(F)c(F)c(F)c2F)cc1[N+](=O)[O-]` [Example 7, (E)-N-(4-Methoxy-3-nitrophenyl)-3-(2,3,4,5,6-pentafluorophenyl)-2-propenamide], the K562 activity entry in assay [1] is recorded as “++ (++ denotes activity at 10 μM)”. For the same molecule, the DU145 activity entry with DU145 (prostate cancer) is on record as “++ (++ denotes activity at 10 μM)”. For the same molecule, the BT20 activity result in the assay with BT20 (breast cancer) is reported as “++ (++ denotes activity at 10 μM)”. In addition, in the assay on DLD1 (colorectal cancer), the DLD1 activity entry is given as “++ (++ denotes activity at 10 μM)”.

Regarding `COc1ccc(NC(=O)/C=C/c2ccc(N)c(F)c2)cc1N` [Example 9, (E)-N-(4-Methoxy-3-aminophenyl)-3-(3-fluoro-4-aminophenyl)-2-propenamide], the K562 activity result in assay [1] is “++ (++ denotes activity at 10 μM)”. In addition, the DU145 activity result with DU145 (prostate cancer) is “++ (++ denotes activity at 10 μM)”. Also, the BT20 activity result in the assay with BT20 (breast cancer) is “++ (++ denotes activity at 10 μM)”. The DLD1 activity result in the assay with DLD1 (colorectal cancer) is on record as “++ (++ denotes activity at 10 μM)”.

On to `COc1cc(OC)c(/C=C/C(=O)Nc2ccc(OC)c(NC(=O)C(F)(F)F)c2)c(OC)c1` [Example 10, (E)-N-(4-Methoxy-3-trifluoroacetamidophenyl)-3-(2,4,6-trimethoxyphenyl)-2-propenamide], for which the K562 activity entry in assay [1] was “+++ (+++ denotes activity at 100 nM)”. Moreover, the DU145 activity result in the assay on DU145 (prostate cancer) was “+++ (+++ denotes activity at 100 nM)”. For the same molecule, the BT20 activity entry with BT20 (breast cancer) was “+++ (+++ denotes activity at 100 nM)”. In addition, the DLD1 activity result in the assay on DLD1 (colorectal cancer) is reported as “+++ (+++ denotes activity at 100 nM)”.

`COc1cc(OC)c(/C=C/C(=O)Nc2ccc(OC)c(O)c2)c(OC)c1` [Example 11, (E)-N-(3-Hydoxy-4-methoxyphenyl)-3-(2,4,6-trimethoxyphenyl)-2-propenamide]: the K562 activity result in assay [1] was “++++ (++++ denotes activity at <100 nm)”. The DU145 activity entry with DU145 (prostate cancer) is on record as “++++ (++++ denotes activity at <100 nm)”. For the same molecule, in the assay with BT20 (breast cancer), the BT20 activity entry is on record as “++++ (++++ denotes activity at <100 nm)”. In addition, the DLD1 activity entry with DLD1 (colorectal cancer) is “++++ (++++ denotes activity at <100 nm)”.

As for `COc1cc(/C=C/C(=O)Nc2ccc(Br)cc2)ccc1F` [Example 12, (E)-N-(4-Bromophenyl)-3-(3-methoxy-4fluorophenyl)-2-propenamide], the K562 activity result in assay [1] is reported as “++ (++ denotes activity at 10 μM)”. Moreover, the DU145 activity result with DU145 (prostate cancer) is reported as “++ (++ denotes activity at 10 μM)”. Besides, the BT20 activity entry in the assay on BT20 (breast cancer) was “++ (++ denotes activity at 10 μM)”. Also, in the assay on DLD1 (colorectal cancer), the DLD1 activity entry is on record as “++ (++ denotes activity at 10 μM)”.

Take `N#Cc1cc(/C=C/C(=O)Nc2ccc(Br)cc2)ccc1F` [Example 13, (E)-N-(4-Bromophenyl)-3-(3-cyano-4-fluorophenyl)-2-propenamide]: the K562 activity entry in assay [1] was “++ (++ denotes activity at 10 μM)”. Besides, the DU145 activity entry with DU145 (prostate cancer) is on record as “++ (++ denotes activity at 10 μM)”. Also, in the assay on BT20 (breast cancer), the BT20 activity entry was “++ (++ denotes activity at 10 μM)”. Moreover, the DLD1 activity entry in the assay on DLD1 (colorectal cancer) was “++ (++ denotes activity at 10 μM)”.
